# From ChEMBL document CHEMBL1201862, “PubChem BioAssay data set” (2004)
# Calls of active or inactive are those of the source.
# Columns and labels:
# [1] = target: T1, Corticotropin-releasing factor receptor 2/Corticotropin-releasing factor-binding protein (Homo sapiens, UniProt P24387+Q13324); assay: activators of CRF receptor 2 with binding protein – uHTS hits, confirmation (AID 602473); format: functional; details: read-out: EC50_Mean
# T1 sequence (Q13324 whole entry): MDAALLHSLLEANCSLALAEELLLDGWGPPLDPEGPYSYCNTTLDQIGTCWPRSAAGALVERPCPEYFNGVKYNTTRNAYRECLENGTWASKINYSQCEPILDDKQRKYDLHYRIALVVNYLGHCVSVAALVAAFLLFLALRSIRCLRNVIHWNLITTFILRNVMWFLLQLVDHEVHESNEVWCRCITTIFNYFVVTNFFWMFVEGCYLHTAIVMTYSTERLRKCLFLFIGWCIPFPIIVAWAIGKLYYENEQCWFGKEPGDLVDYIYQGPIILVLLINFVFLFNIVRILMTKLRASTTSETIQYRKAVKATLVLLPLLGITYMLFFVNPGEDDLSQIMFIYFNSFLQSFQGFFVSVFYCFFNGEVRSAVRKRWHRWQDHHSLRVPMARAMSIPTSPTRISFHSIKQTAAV
# T1 sequence (P24387 whole entry): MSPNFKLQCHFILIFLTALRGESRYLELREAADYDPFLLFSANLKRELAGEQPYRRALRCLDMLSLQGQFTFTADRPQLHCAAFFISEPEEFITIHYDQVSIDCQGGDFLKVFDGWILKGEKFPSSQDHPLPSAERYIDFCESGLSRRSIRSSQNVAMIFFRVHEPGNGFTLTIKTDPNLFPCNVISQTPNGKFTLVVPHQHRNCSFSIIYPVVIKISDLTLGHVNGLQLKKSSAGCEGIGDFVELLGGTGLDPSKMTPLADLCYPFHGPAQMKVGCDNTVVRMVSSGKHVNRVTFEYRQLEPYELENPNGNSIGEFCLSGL
# [2] = target: T2, Endoribonuclease toxin MazF (Escherichia coli K-12, UniProt P0AE70); assay: fluorescent RNA oligo signal without MazF, dose response, counter-screen for MazEF activator project, biochemical, fluorescence, single-stranded RNase substrate (AID 588502); format: functional
# T2 sequence (P0AE70 whole entry): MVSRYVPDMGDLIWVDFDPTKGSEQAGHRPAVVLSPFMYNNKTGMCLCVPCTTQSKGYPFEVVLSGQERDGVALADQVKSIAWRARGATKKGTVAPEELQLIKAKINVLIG
# [3] = target: T2, Endoribonuclease toxin MazF; assay: MazF toxin RNase activators, dose response, biochemical, fluorescence, single-stranded RNA substrate, uHTS hits (AID 588481); format: functional
# [4] = target: T3, Zinc finger protein mex-5 (Caenorhabditis elegans, UniProt Q9XUB2); assay: MEX-5/TCR-2 RNA interaction inhibitors, dose response, biochemical, C. elegans, fluorescence polarization (AID 1960)
# T3 sequence (Q9XUB2 whole entry): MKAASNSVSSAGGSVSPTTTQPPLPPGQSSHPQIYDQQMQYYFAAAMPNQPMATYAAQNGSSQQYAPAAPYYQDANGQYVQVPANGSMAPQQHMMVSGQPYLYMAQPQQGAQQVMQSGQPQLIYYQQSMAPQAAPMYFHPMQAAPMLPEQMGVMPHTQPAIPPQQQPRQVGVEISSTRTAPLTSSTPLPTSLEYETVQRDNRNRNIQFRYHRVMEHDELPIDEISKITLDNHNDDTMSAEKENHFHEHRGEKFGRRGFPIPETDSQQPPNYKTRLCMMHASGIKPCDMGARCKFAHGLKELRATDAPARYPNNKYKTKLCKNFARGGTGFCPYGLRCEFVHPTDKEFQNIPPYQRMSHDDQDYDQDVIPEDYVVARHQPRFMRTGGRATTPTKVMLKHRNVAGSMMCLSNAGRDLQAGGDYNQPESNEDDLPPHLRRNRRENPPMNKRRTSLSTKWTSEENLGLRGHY
# [5] = target: T4, RNA-binding protein pos-1 (Caenorhabditis elegans, UniProt G5EF15); assay: inhibitors of POS-1/mex-3 RNA binding, dose response, biochemical, fluorescence polarization (AID 1964);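 further: purified POS-1 fused to maltose binding protein made in E. coli; potency of compounds blocking POS-1 binding to fluorescent RNA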
# T4 sequence (G5EF15 whole entry): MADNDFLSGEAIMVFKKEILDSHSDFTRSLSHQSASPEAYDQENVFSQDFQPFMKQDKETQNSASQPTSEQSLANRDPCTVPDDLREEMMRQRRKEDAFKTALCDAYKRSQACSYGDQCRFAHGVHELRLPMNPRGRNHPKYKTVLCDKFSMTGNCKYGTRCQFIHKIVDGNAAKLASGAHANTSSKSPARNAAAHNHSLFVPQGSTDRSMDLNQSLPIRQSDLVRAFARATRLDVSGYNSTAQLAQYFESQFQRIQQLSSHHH
# [6] = target: T5, Histone-lysine N-methyltransferase NSD2 (Homo sapiens, UniProt O96028); format: biochemical
# T5 sequence (O96028 whole entry): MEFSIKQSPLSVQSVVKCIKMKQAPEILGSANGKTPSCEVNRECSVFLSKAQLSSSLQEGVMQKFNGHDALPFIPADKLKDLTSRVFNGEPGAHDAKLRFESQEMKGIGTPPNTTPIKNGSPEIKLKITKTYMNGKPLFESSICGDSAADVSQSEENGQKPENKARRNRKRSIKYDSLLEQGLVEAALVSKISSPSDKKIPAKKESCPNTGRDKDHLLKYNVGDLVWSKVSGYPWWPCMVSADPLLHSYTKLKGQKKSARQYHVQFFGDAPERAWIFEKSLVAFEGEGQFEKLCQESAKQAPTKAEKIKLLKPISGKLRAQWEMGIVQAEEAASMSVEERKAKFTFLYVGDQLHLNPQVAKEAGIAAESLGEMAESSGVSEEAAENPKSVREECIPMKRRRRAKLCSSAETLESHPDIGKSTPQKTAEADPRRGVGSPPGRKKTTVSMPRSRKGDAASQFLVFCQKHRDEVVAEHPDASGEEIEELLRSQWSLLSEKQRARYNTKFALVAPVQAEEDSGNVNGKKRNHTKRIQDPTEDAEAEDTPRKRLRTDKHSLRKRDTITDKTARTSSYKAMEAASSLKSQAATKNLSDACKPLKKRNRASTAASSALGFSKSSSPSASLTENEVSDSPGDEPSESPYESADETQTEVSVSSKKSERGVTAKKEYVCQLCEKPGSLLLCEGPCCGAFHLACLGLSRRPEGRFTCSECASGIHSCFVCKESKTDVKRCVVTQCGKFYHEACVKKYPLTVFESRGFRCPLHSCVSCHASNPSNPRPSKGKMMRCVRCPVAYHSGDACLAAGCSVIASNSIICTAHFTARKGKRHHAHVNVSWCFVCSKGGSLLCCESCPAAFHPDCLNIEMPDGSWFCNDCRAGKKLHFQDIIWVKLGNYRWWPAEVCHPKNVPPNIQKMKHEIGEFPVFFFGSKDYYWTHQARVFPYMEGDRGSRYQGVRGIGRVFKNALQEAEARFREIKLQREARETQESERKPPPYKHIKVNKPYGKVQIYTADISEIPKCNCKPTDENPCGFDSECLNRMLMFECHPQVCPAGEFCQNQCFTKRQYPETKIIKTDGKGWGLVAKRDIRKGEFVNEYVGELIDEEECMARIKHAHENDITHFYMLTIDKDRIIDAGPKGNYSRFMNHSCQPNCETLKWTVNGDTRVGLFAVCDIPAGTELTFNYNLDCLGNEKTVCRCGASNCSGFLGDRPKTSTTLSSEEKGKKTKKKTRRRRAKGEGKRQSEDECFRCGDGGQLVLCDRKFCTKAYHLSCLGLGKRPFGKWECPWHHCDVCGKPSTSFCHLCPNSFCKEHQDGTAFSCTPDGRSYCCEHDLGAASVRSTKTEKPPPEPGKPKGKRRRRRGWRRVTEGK
# [7] = target: T6, DNA repair protein RAD52 homolog (Homo sapiens, UniProt P43351); format: functional, biochemical
# T6 sequence (P43351 whole entry): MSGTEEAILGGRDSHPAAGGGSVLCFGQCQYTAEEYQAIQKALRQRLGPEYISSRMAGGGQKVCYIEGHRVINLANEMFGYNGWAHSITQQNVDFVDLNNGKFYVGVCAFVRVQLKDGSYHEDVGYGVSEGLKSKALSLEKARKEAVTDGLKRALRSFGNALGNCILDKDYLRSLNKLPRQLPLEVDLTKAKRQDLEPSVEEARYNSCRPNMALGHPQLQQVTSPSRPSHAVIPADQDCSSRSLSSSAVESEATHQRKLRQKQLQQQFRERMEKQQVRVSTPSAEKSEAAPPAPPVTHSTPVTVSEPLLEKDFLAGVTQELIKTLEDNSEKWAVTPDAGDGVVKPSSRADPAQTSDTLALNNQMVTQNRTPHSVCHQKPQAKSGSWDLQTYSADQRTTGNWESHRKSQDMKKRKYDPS
# [8] = tested on: Streptococcus sp. 'group A'; assay: growth inhibition of control SK(-) GAS strain, dose response, counter-screen for streptokinase expression inhibitor project, luminescence, kanamycin, BacTiterGlo, confirmation (AID 1900); format: functional, organism-based
# [9] = non-specific cell cytotoxicity, dose response, cytotoxicity control for PAX8 inhibitor project, plate reader, dry powder samples (AID 743021); format: functional, cell-based
# Streptokinase A = target: T7, Streptokinase A (Streptococcus pyogenes serotype M1, UniProt P10520); assay: S. pyogenes streptokinase expression inhibitors, potency, dose response, plasminogen activation absorbance, OD405 (AID 1914); format: functional, Streptococcus pyogenes M1 GAS;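 further: secreted streptokinase activity via plasminogen activation per viability signal from cell pellet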
# T7 sequence (P10520 whole entry): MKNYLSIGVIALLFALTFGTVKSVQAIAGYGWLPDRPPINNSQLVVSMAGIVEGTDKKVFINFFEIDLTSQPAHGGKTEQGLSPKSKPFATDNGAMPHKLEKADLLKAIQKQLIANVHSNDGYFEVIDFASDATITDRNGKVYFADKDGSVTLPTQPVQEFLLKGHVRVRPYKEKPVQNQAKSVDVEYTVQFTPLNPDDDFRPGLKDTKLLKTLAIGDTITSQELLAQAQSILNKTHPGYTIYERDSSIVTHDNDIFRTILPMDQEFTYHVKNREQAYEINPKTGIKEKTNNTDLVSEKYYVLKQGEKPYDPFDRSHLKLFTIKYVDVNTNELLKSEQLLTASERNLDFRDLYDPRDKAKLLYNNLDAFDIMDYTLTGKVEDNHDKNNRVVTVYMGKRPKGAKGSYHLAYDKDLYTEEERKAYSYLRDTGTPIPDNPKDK
# Paired box protein Pax-8 = Paired box protein Pax-8 (Homo sapiens, UniProt Q06710); assay: inhibitors of PAX8-driven TPO luciferase reporter, dose response, RMG-I cells, cherry-pick (AID 687027); format: functional, cell-based;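 further: luciferase reporter driven by Pax8 target thyroperoxidase promoter measured by SteadyGlo luminescence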
# Streptococcus = assay: Group A Streptococcus viability loss, dose response, counter-screen for streptokinase expression inhibitor project, luminescence, BacTiterGlo (AID 1915); format: functional, organism-based;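 further: potency for reduction of bacterial viability or growth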
# [10] = Luminescence Cell-Based Dose Retest to Confirm Inhibitors of Cancer Stem Cells. [Related pubchem assays (depositor defined):AID2717, AID2721]; format: functional; details: Homo sapiens
# H9c2 = assay: cells; format: functional, cell-based; details: Rattus norvegicus, H9c2, Myocardium;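 further: confirmatory concentration-response retest of ultra-high-throughput screening hits for modulation of myocardial damage; cell death induced by hydrogen peroxide oxidative stress; compound pretreatment for 60 min then peroxide exposure for 2 h; potency is for protecting the cells against peroxide damage rather than for killing them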
# fMet-Leu-Phe receptor = target: T8, fMet-Leu-Phe receptor (Homo sapiens, UniProt P21462); assay: FPR ligands, dose response (AID 519); format: functional
# T8 sequence (P21462 whole entry): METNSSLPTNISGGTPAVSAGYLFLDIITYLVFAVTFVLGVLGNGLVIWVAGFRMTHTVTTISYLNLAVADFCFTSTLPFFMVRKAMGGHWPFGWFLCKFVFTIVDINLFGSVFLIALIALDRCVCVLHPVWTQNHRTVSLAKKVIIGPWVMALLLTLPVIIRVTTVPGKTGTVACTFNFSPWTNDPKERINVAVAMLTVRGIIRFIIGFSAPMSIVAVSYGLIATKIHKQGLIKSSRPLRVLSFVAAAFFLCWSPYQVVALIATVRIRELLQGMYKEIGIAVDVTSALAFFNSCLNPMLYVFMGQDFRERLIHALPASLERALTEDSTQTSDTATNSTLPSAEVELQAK
# [11] = target: Induced myeloid leukemia cell differentiation protein Mcl-1 (Homo sapiens, UniProt Q07820); format: functional
# Induced myeloid leukemia cell differentiation protein Mcl-1, sequence (Q07820 whole entry): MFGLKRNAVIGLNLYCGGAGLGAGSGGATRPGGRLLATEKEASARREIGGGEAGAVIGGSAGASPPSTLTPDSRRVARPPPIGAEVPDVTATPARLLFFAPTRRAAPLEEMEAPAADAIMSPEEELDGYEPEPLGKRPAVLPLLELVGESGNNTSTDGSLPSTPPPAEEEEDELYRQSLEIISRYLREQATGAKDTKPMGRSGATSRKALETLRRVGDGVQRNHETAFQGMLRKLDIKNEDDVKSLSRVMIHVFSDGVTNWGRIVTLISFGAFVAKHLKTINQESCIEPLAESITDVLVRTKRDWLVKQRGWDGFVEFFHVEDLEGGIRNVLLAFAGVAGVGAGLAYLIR
# Paired box protein Pax-8, sequence (Q06710 whole entry): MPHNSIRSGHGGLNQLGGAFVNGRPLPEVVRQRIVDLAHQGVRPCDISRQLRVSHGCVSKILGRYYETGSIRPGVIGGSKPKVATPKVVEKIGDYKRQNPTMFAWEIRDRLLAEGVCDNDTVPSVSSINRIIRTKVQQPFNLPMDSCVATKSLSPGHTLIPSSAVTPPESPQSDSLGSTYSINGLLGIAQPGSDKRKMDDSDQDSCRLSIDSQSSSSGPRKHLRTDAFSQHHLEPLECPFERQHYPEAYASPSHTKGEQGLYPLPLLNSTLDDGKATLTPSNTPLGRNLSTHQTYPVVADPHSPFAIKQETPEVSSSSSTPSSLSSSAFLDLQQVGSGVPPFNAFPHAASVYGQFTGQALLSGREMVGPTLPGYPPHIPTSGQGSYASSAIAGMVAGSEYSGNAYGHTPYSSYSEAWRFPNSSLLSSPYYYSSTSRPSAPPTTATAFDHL
structure (smiles),measurement,setting,value
Oc1ccccc1C=NN=Cc1c(O)ccc2ccccc12,EC50,[1],5.17 µM (active)
same,EC50,[2],> 99 µM (inactive)
same,EC50,[3],> 99 µM (inactive)
Cn1cc(C=C2C(=O)NC(=O)NC2=O)c2ccccc21,EC50,[1],24.1 µM (active)
same,EC50,[2],21.1 µM (inactive)
same,EC50,[4],5.82 µM (inconclusive)
same,EC50,[3],> 99 µM (inactive)
same,EC50,[5],6.99 µM (inconclusive)
O=C(NCC1CC1)c1ccc(-n2ccnc2)c2ccoc12,AC50,[6],14.1 µM (active)
CSc1nc(NCCCN(C)C)c2c3c(sc2n1)CN(C)CC3,AC50,[7],10.1 µM (active)
O=C(Nc1cccc(NC(=O)c2ccc([N+](=O)[O-])o2)c1)c1ccco1,EC50,[8],7.34 µM (active)
same,AC50,[9],66.2 µM (active)
same,EC50,Streptokinase A,111 µM (active)
same,AC50,Paired box protein Pax-8,5.2 µM (active)
same,EC50,Streptococcus,22.7 µM (active)
same,AC50,[10],2.95 µM (active)
same,IC50,H9c2,> 79 µM (inactive)
Clc1cccc(/C(Cc2nc3ccccc3[nH]2)=N\Nc2ccccc2)c1,EC50,[2],> 99 µM (inactive)
same,EC50,[3],> 99 µM (inactive)
COc1ccccc1Oc1c(C)oc2c(CN(C)C)c(O)ccc2c1=O,Ki,fMet-Leu-Phe receptor,> 66.7 µM (inactive)
CCOC(=O)N1CCC(NC(=O)c2cc(C(=O)Nc3ccc(OC)c(OC)c3)ccc2CO)CC1,Ki,fMet-Leu-Phe receptor,> 66.7 µM (inactive)
CC1=CC(=C2N=C(c3ccccc3)OC2=O)C=C(C)O1,EC50,[2],> 99 µM (inactive)
same,EC50,[4],12.3 µM (inconclusive)
same,EC50,[3],> 99 µM (inactive)
same,EC50,[5],142 µM (inconclusive)
COCCN=C(S)Nc1ccc2nc(N3CCN(C)CC3)cc(C)c2c1,AC50,[7],13.2 µM (active)
COC(=O)c1ccccc1NC(=O)Cn1cnc2c(cnn2-c2ccccc2)c1=O,EC50,[2],> 99 µM (inactive)
same,EC50,[3],> 99 µM (inactive)
COC(=O)c1[nH]c2ccccc2c1/C=C1\C(=O)NC(=O)N(c2ccc(Br)cc2)C1=O,IC50,[11],9.03 µM (active)
same,AC50,[6],> 20 µM (inactive)
COc1ccc(OC)c(C2C(C(=O)c3ccco3)=C(O)C(=O)N2CCCN2CCOCC2)c1 (stereo unspecified),Ki,fMet-Leu-Phe receptor,26.4 µM (inactive)
